Results taken from US10513519B2, “Solid forms of (1S,4S)-4-(2-(((3S,4R)-3-fluorotetrahydro-2H-pyran-4-yl)amino)-8-((2,4,6-trichlorophenyl)amino)-9H-purin-9-yl)-1-methylcyclohexane-1-carboxamide and methods of their use” (Signal Pharmaceuticals, LLC, priority 2016, dated 2019).

What was measured:
[1] = tested on: 64 cancer cell lines; test: Anti-proliferative activity across a panel of 64 cancer cell lines (CellTiter-Glo); type: cell-based
Experimental: Prior to testing, cells were grown and expanded in culture flasks to provide sufficient amounts of starting material. Cells were then diluted to the appropriate densities and added directly to the compound-spotted 384-well plates. Cells were allowed to grow for 72 h at 37° C./5% CO2. At the time when compound was added (to), initial cell number was assessed via a viability assay (Cell Titer-Glo) by quantifying the level of luminescence generated by ATP present in viable cells. After 72 h, cell viability of compound-treated cells was assessed via Cell Titer-Glo and luminescence measurement. The apoptotic response to Compound 1 was assessed by quantifying the activities of caspase 3 and caspase 7 (Caspase 3/7-Glo) in treated cells and DMSO control cells.
Cells were treated with DMSO or increasing concentrations of Compound 1 for 72 h. Proliferation was measured using CellTiter-Glo as described.

[2] = tested on: SW48 xenograft; test: β-catenin mutant SW48 colorectal xenograft model; type: in vivo, SCID mice
Text: Female SCID mice were inoculated with 2×10^6 SW48 tumor cells into the right flank. Mice were randomized into treatment groups (n=10/group) at the time of treatment initiation. Test article treatment started on Day 10 when the tumors were approximately 110 and 105 mm^3. (FIGS. 202A-202B) Black dotted line is the tumor volume at the initiation of dosing. Graph on the left is a dose-response study. Graph on the right is a time to progression study where animals were maintained on drug during the course of the study. Dotted line is the tumor volume on Day 28 when the vehicle control group was terminated.

[3] = HUH-6-clone5, 72 h, HuH-6-Clone5 (Liver)
[4] = HepG2/C3A, 72 h, HepG2/C3A (Liver)
[5] = Homo sapiens, A549, 72 h, A549 (Lung)
[6] = Homo sapiens, A-375, 72 h, A375 (Melanoma)
[7] = Homo sapiens, BXPC-3, 72 h, BxPC-3 (Pancreas)
[8] = Homo sapiens, CFPAC-1, 72 h, CFPAC-1 (Pancreas)
[9] = Homo sapiens, COLO 205, 72 h, Colo 205 (Colon)
[10] = Homo sapiens, HCT-116, 72 h, HCT-116 (Colon)
[11] = Homo sapiens, HOP-62, 72 h, HOP62 (Lung)
[12] = Homo sapiens, HOP-92, 72 h, HOP92 (Lung)
[13] = Homo sapiens, HT-29, 72 h, HT29 (Colon)
[14] = Homo sapiens, HT-29, 72 h, HT29/219 (Colon)
[15] = Homo sapiens, Hep3B, 72 h, Hep3B (Liver)
[16] = Homo sapiens, HepG2, 72 h, HepG2 (Liver)
[17] = Homo sapiens, HuCCT-1, 72 h, HuCCT1 (Liver)
[18] = Homo sapiens, HuH-1, 72 h, HuH-1 (Liver)
[19] = Homo sapiens, Huh-7, 72 h, HuH-7 (Liver)
[20] = Homo sapiens, K562, 72 h, K-562 (Leukemia)
[21] = Homo sapiens, KATO III, 72 h, KATOIII, Stomach
[22] = Homo sapiens, LOX IMVI, 72 h, LOX-IMVI (Melanoma)
[23] = Homo sapiens, LoVo, 72 h, LOVO (Colon)
[24] = Homo sapiens, MDA-MB-231, 72 h, MDA-MB-231 (Breast)
[25] = Homo sapiens, Malme-3M, 72 h, MALME-3M (Melanoma)
[26] = Homo sapiens, NCI-H23, 72 h, NCI-H23 (Lung)
[27] = Homo sapiens, NCI-H28, 72 h, NCI-H28 (Lung)
[28] = Homo sapiens, NCI-H226, 72 h, NCI-H226 (Lung)
[29] = Homo sapiens, NCI-H441, 72 h, NCI-H441 (Lung)
[30] = Homo sapiens, NCI-H460, 72 h, NCI-H460 (Lung)
[31] = Homo sapiens, NCI-H520, 72 h, NCI-H520 (Lung)
[32] = Homo sapiens, NCI-H838, 72 h, NCI-H838 (Lung)
[33] = Homo sapiens, NCI-H1299, 72 h, NCI-H1299 (Lung)
[34] = Homo sapiens, NCI-H1703, 72 h, NCI-H1703 (Lung)
[35] = Homo sapiens, NCI-H1755, 72 h, NCI-H1755 (Lung)
[36] = Homo sapiens, NCI-H1975, 72 h, NCI-H1975 (Lung)
[37] = Homo sapiens, NCI-H2122, 72 h, NCI-H2122 (Lung)
[38] = Homo sapiens, PANC-1, 72 h, PANC-1 (Pancreas)
[39] = Homo sapiens, PLC-PRF-5, 72 h, PLC-PRF-5 (Liver)
[40] = Homo sapiens, RPMI-8226, 72 h, RPMI-8226 (Multiple myeloma)
[41] = Homo sapiens, SK-HEP1, 72 h, SK-HEP-1 (Liver)
[42] = Homo sapiens, SNU-182, 72 h, SNU-182 (Liver)
[43] = Homo sapiens, SNU-387, 72 h, SNU-387 (Liver)
[44] = Homo sapiens, SNU-398, 72 h, SNU-398 (Liver)
[45] = Homo sapiens, SNU-423, 72 h, SNU-423 (Liver)
[46] = Homo sapiens, SNU-449, 72 h, SNU-449 (Liver)
[47] = Homo sapiens, SNU-475, 72 h, SNU-475 (Liver)
[48] = Homo sapiens, SW48, 72 h, SW48 (Colon)
[49] = Homo sapiens, SW900, 72 h, SW900 (Lung)
[50] = Homo sapiens, SW1417, 72 h, SW1417 (Colon)
[51] = Homo sapiens, SW-620, 72 h, SW620 (Colon)
[52] = Mel202, 72 h, MEL-202 (Melanoma)

C[C@]1(C(N)=O)CC[C@@H](n2c(Nc3c(Cl)cc(Cl)cc3Cl)nc3cnc(N[C@@H]4CCOC[C@H]4F)nc32)CC1 [Compound 1, cis-4-[2-{[(3S,4R)-3-fluorooxan-4-yl]amino}-8-(2,4,6-trichloroanilino)-9H-purin-9-yl]-1-methylcyclohexane-1-carboxamide]
GI50 ([1]; 72 h, 92-1 (Melanoma)): 10.2 nM | IC50 ([1]; 72 h, 92-1 (Melanoma)): 31.6 nM | GI50 ([1]; 72 h, AGS, Stomach): 23 nM | IC50 ([1]; 72 h, AGS, Stomach): 28 nM | GI50 ([1]; 72 h, FOCUS (Liver)): 1500 nM | IC50 ([1]; 72 h, FOCUS (Liver)): 4300 nM | GI50 ([1]; 72 h, HLE (Liver)): 4850 nM | IC50 ([1]; 72 h, HLE (Liver)): 9620 nM | GI50 ([1]; 72 h, HLF (Liver)): 6680 nM | IC50 ([1]; 72 h, HLF (Liver)): 7390 nM | GI50 ([1]; 72 h, JHH-5 (Liver)): 4.5 nM | IC50 ([1]; 72 h, JHH-5 (Liver)): 7 nM | GI50 ([1]; 72 h, JHH-6 (Liver)): 10000 nM | IC50 ([1]; 72 h, JHH-6 (Liver)): 10000 nM | GI50 ([1]; 72 h, PC-9 (Lung)): 217 nM | IC50 ([1]; 72 h, PC-9 (Lung)): 379 nM | proliferation of multiple cancer cell lines ([1]; 72 h, CRC, melanoma, gastric cancer, HCC, lung cancer, pancreatic cancer, leukemia, multiple myeloma): inhibit the proliferation | GI50 [1, 3]: 29.1 nM | IC50 [1, 3]: 1220 nM | GI50 [1, 4]: 4620 nM | IC50 [1, 4]: 10000 nM | GI50 [1, 5]: 40.2 nM | IC50 [1, 5]: 82.2 nM | GI50 [1, 6]: 21 nM | IC50 [1, 6]: 24 nM | GI50 [1, 7]: 36.8 nM | IC50 [1, 7]: 70.8 nM | GI50 [1, 8]: 1950 nM | IC50 [1, 8]: 7400 nM | GI50 [1, 9]: 25 nM | IC50 [1, 9]: 40 nM | GI50 [1, 10]: 17 nM | IC50 [1, 10]: 22 nM | GI50 [1, 11]: 339 nM | IC50 [1, 11]: 3490 nM | GI50 [1, 12]: 108 nM | IC50 [1, 12]: 117 nM | GI50 [1, 13]: 16 nM | IC50 [1, 13]: 25 nM | GI50 [1, 14]: 1.7 nM | IC50 [1, 14]: 4.5 nM | GI50 [1, 15]: 5.3 nM | IC50 [1, 15]: 14.7 nM | GI50 [1, 16]: 34.6 nM | IC50 [1, 16]: 1240 nM | GI50 [1, 17]: 25.3 nM | IC50 [1, 17]: 1300 nM | GI50 [1, 18]: 235 nM | IC50 [1, 18]: 7260 nM | GI50 [1, 19]: 21.2 nM | IC50 [1, 19]: 489 nM | GI50 [1, 20]: 5420 nM | IC50 [1, 20]: 6030 nM | GI50 [1, 21]: 7050 nM | IC50 [1, 21]: 8020 nM | GI50 [1, 22]: 22 nM | IC50 [1, 22]: 25 nM | GI50 [1, 23]: 63 nM | IC50 [1, 23]: 126 nM | GI50 [1, 24]: 35.3 nM | IC50 [1, 24]: 3330 nM | GI50 ([1]; Homo sapiens, MIA PaCa-2, 72 h, MiaPaCa-2 (Pancreas)): 47 nM | GI50 [1, 25]: 1.1 nM | IC50 [1, 25]: 3.8 nM | GI50 [1, 26]: 36.4 nM | IC50 [1, 26]: 182 nM | GI50 [1, 27]: 1280 nM | IC50 [1, 27]: 2360 nM | GI50 [1, 28]: 1630 nM | IC50 [1, 28]: 6150 nM | GI50 [1, 29]: 184 nM | IC50 [1, 29]: 6350 nM | GI50 [1, 30]: 244 nM | IC50 [1, 30]: 644 nM | GI50 [1, 31]: 5240 nM | IC50 [1, 31]: 8370 nM | GI50 [1, 32]: 567 nM | IC50 [1, 32]: 9180 nM | GI50 [1, 33]: 234 nM | IC50 [1, 33]: 498 nM | GI50 [1, 34]: 1350 nM | IC50 [1, 34]: 1680 nM | GI50 [1, 35]: 40.4 nM | IC50 [1, 35]: 58.4 nM | GI50 [1, 36]: 2050 nM | IC50 [1, 36]: 3190 nM | GI50 [1, 37]: 31.8 nM | IC50 [1, 37]: 42.7 nM | GI50 [1, 38]: 5440 nM | IC50 [1, 38]: 10000 nM | GI50 [1, 39]: 888 nM | IC50 [1, 39]: 4010 nM | GI50 [1, 40]: 3240 nM | IC50 [1, 40]: 9740 nM | GI50 [1, 41]: 7040 nM | IC50 [1, 41]: 10000 nM | GI50 [1, 42]: 76.4 nM | IC50 [1, 42]: 4980 nM | GI50 [1, 43]: 33.2 nM | IC50 [1, 43]: 104 nM | GI50 [1, 44]: 265 nM | IC50 [1, 44]: 1970 nM | GI50 [1, 45]: 6240 nM | IC50 [1, 45]: 10000 nM | GI50 [1, 46]: 10000 nM | IC50 [1, 46]: 10000 nM | GI50 [1, 47]: 9990 nM | IC50 [1, 47]: 10000 nM | GI50 [1, 48]: 5.7 nM | IC50 [1, 48]: 88 nM | GI50 [1, 49]: 4.8 nM | IC50 [1, 49]: 21.7 nM | GI50 [1, 50]: 0.5 nM | IC50 [1, 50]: 16.9 nM | GI50 [1, 51]: 47 nM | IC50 [1, 51]: 92 nM | GI50 ([1]; JHH1, 72 h, JHH-1 (Liver)): 1.6 nM | IC50 ([1]; JHH1, 72 h, JHH-1 (Liver)): 94.6 nM | GI50 ([1]; JHH7, 72 h, JHH-7 (Liver)): 83.4 nM | IC50 ([1]; JHH7, 72 h, JHH-7 (Liver)): 548 nM | GI50 ([1]; JHH-2, 72 h, JHH-2 (Liver)): 129 nM | IC50 ([1]; JHH-2, 72 h, JHH-2 (Liver)): 4480 nM | GI50 ([1]; JHH-4, 72 h, JHH-4 (Liver)): 363 nM | IC50 ([1]; JHH-4, 72 h, JHH-4 (Liver)): 2320 nM | GI50 [1, 52]: 38.5 nM | IC50 [1, 52]: 96.8 nM | antitumor activity [2]: Significant antitumor activity
